{"source": "patent US20040259948A1", "about": "“Reciprocal regulation of inflammation and lipid metabolism by liver X receptors” (priority 2003, published 2004)", "key": {"[1]": {"tested_on": "Thioglycolate-elicited peritoneal macrophages", "experiment": "DNA microarray analysis of LPS-activated macrophages", "type": "cell-based, mice", "conditions": "2 μM 18 h, then 100 ng/ml LPS 6 h", "procedure": "DNA microarrays were used to further examine the effect of LXR activation on LPS-induced gene transcription. […] Cells were harvested 6 hours after LPS stimulation and total RNA from these samples was used to probe Affymetrix U74Av2 arrays. The array data were analyzed using GeneSpring software to identify genes regulated by the ligand in the cells. […] Genes involved in inflammation or lipid metabolism were selected based on ligand-dependent changes in expression in the cells. […] DNA microarray analysis. […] Total RNA was reverse transcribed using a T7-(dT)24 primer (Genset Corp.). Biotin-labeled cRNA was generated using the Bioarray High Yield Transcript Labeling Kit (ENZO). Samples were hybridized to single Affymetrix Murine U74Av2 microarrays and visualized by the PAN Facility at Stanford University. Data was analyzed using GeneSpring and GeneChip Analysis Suite software (Affymetrix). Only those results determined by the software to represent significant expression differences in the presence or absence of ligand are presented. Positive results were defined as ligand-dependent changes in expression in wild-type cells."}, "[2]": {"tested_on": "Thioglycolate-elicited murine peritoneal macrophages", "experiment": "IL-1β- or TNFα-induced inflammatory gene expression in macrophages", "type": "cell-based", "conditions": "pretreated 18 h; IL-1β or TNFα (50 ng/ml); real-time quantitative PCR", "procedure": "Next, the influence of LXR agonists on inflammatory gene expression induced by IL-1β and TNFα, which have been implicated in the pathogenesis of atherosclerosis, was tested. […] Gene expression was detected by real-time quantitative PCR assays. […] Total RNA was isolated from individual aortas and gene expression was measured by real-time quantitative PCR. P<0.05 for MMP-9 (*) and P<0.01 (**) for ABCA1. […] Thus, LXR agonist reduces expression of an established inflammatory mediator in the vessel wall. Cell culture and transfections. Thioglycolate-elicited peritoneal macrophages were cultured in RPMI containing 10% fetal bovine serum (FBS). RAW 264.7 cells were cultured in DMEM containing 10% FBS. For ligand treatments, cells were in cultured medium supplemented with 5% lipoprotein-deficient serum (LPDS) and ligands for 18 h before stimulation. Bacterial infection in vitro was performed as described (Chen, L. M. et al. 1996 Mol Microbiol 21:1101-1115). Transient transfections of RAW 264.7 cells were performed in triplicate in 48-well plates using Superfect reagent (Life Technologies). After transfection, cells were incubated in medium containing 10% LPDS and the indicated ligands for 18 h before stimulation with LPS for an additional 18 h. Luciferase activity was normalized to β-galactosidase activity. NO production was determined spectrophotometrically (Castrillo, A. et al. 2000 Mol Cell Biol 20:1692-1698). RNA and protein analysis. Total RNA was extracted using Trizol reagent (Life Technologies, Inc.). Northern blot analysis was carried out as described using radiolabeled cDNA probes (Tontonoz, P. et al. 1998 Cell 93:241-252). Real-time quantitative PCR (TaqMan) analysis was performed using an Applied Biosystems 7700 sequence detector. Two-step real-time PCR was performed as described (Joseph, S. B. et al. 2002 J Biol Chem 277:11019-11025). The primers and probes used are as follows: […]"}, "[3]": {"tested_on": "atherosclerotic aortas of Apoe−/− mice", "experiment": "Gene expression in atherosclerotic aortas of Apoe−/− mice", "type": "in vivo", "conditions": "Apoe−/− mice 8 months of age, treated 3 days", "procedure": "Next, the influence of LXR agonists on inflammatory gene expression induced by IL-1β and TNFα, which have been implicated in the pathogenesis of atherosclerosis, was tested. […] Gene expression was detected by real-time quantitative PCR assays. […] Total RNA was isolated from individual aortas and gene expression was measured by real-time quantitative PCR. P<0.05 for MMP-9 (*) and P<0.01 (**) for ABCA1. […] Thus, LXR agonist reduces expression of an established inflammatory mediator in the vessel wall. RNA and protein analysis. Total RNA was extracted using Trizol reagent (Life Technologies, Inc.). Northern blot analysis was carried out as described using radiolabeled cDNA probes (Tontonoz, P. et al. 1998 Cell 93:241-252). Real-time quantitative PCR (TaqMan) analysis was performed using an Applied Biosystems 7700 sequence detector. Two-step real-time PCR was performed as described (Joseph, S. B. et al. 2002 J Biol Chem 277:11019-11025). The primers and probes used are as follows: Animals. Mice on a mixed background (C57B1/6 and 129v) and Apoe^−/− mice on a C57B1/6 background were maintained on standard chow. […] Irritant contact dermatitis was induced as described (Sheu, M. Y. et al. 2002 J Invest Dermatol 118:94-101). Briefly, 10 μl of 0.03% 12-O-tetradecanoylphorbol-13-acetate (TPA) in acetone was applied to the left ears of male mice. The right ears were treated with vehicle alone. […] After 18 h of TPA treatment, the thickness and weight of 6-mm punch biopsies were determined. Statistical analysis was performed using Student's t-test. Experiments were conducted in accordance of the Animal Research Committee of the University of California, Los Angeles."}}, "data": [{"compound": "O=C(O)Cc1cccc(OCCCN(Cc2cccc(C(F)(F)F)c2Cl)CC(c2ccccc2)c2ccccc2)c1", "note": "[GW3965]", "values": [{"measurement": "expression of cluster of genes of macrophage innate immune response (iNOS, COX-2, IL-6, IL-1β, G-CSF, MCP-1, MCP-3, MIP-1β, IP-10, MMP-9)", "setting": "[1]", "result": "inhibited"}, {"measurement": "expression of genes involved in lipid metabolism (incl. Abca1)", "setting": "[1]", "result": "most highly induced"}, {"measurement": "expression of genes involved in other cellular processes", "setting": "[1]", "result": "not significantly altered"}, {"measurement": "Change: Apoptosis inhibitor 2", "setting": "[1]; apoptosis gene", "result": 1.10}, {"measurement": "Change: Apoptosis inhibitor 3", "setting": "[1]; apoptosis gene", "result": 0.83}, {"measurement": "Change: Apoptosis signal-regulating kinase 1", "setting": "[1]; apoptosis gene", "result": 0.99}, {"measurement": "Change: Apoptosis-inducing factor AIF (Aif)", "setting": "[1]; apoptosis gene", "result": 0.83}, {"measurement": "Change: Bc1-10 protein", "setting": "[1]; apoptosis gene", "result": 1.13}, {"measurement": "Change: Bc12-associated X protein", "setting": "[1]; apoptosis gene", "result": 1.15}, {"measurement": "Change: Bc12-like", "setting": "[1]; apoptosis gene", "result": 0.80}, {"measurement": "Change: Bc12 homologous antagonist/killer", "setting": "[1]; apoptosis gene", "result": 0.94}, {"measurement": "Change: Caspase 2", "setting": "[1]; apoptosis gene", "result": 1.10}, {"measurement": "Change: Caspase 3, apoptosis related cysteine protease", "setting": "[1]; apoptosis gene", "result": 1.40}, {"measurement": "Change: Caspase 7", "setting": "[1]; apoptosis gene", "result": 0.94}, {"measurement": "Change: Caspase 9", "setting": "[1]; apoptosis gene", "result": 0.79}, {"measurement": "Change: Caspase 11", "setting": "[1]; apoptosis gene", "result": 0.92}, {"measurement": "Change: E1B 19 K/Bc1-2-binding protein homolog (Nip3)", "setting": "[1]; apoptosis gene", "result": 1.14}, {"measurement": "Change: Avian reticuloendotheliosis viral (v-rel) oncogene related B", "setting": "[1]; cell-cycle gene", "result": 1.21}, {"measurement": "Change: Cell division cycle 42", "setting": "[1]; cell-cycle gene", "result": 1.06}, {"measurement": "Change: Cyclin 1", "setting": "[1]; cell-cycle gene", "result": 1.05}, {"measurement": "Change: Cyclin B2", "setting": "[1]; cell-cycle gene", "result": 0.68}, {"measurement": "Change: Cyclin F", "setting": "[1]; cell-cycle gene", "result": 0.72}, {"measurement": "Change: Cyclin G2", "setting": "[1]; cell-cycle gene", "result": 0.83}, {"measurement": "Change: Cyclin dependent kinase inhibitor 2B (Cdkn2b)", "setting": "[1]; cell-cycle gene", "result": 1.15}, {"measurement": "Change: Cyclin-dependent kinase 5", "setting": "[1]; cell-cycle gene", "result": 1.00}, {"measurement": "Change: Cyclin-dependent kinase inhibitor 1A (P21)", "setting": "[1]; cell-cycle gene", "result": 0.85}, {"measurement": "Change: Cyclin-dependent kinase inhibitor 1C (P57)", "setting": "[1]; cell-cycle gene", "result": 1.28}, {"measurement": "Change: Early growth response 2", "setting": "[1]; cell-cycle gene", "result": 0.96}, {"measurement": "Change: Growth arrest specific 1", "setting": "[1]; cell-cycle gene", "result": 0.91}, {"measurement": "Change: Growth arrest specific 2", "setting": "[1]; cell-cycle gene", "result": 0.92}, {"measurement": "Change: Growth arrest specific 7", "setting": "[1]; cell-cycle gene", "result": 1.22}, {"measurement": "Change: Guanine Nucleotide Regulatory Protein", "setting": "[1]; cell-cycle gene", "result": 1.12}, {"measurement": "Change: Met proto-oncogene", "setting": "[1]; cell-cycle gene", "result": 1.12}, {"measurement": "Change: Proliferating cell nuclear antigen", "setting": "[1]; cell-cycle gene", "result": 1.13}, {"measurement": "induction of IL-6 expression", "setting": "[2]", "result": "inhibited"}, {"measurement": "induction of iNOS expression", "setting": "[2]", "result": "inhibited"}, {"measurement": "expression of ABCA1 in aorta", "setting": "[3]; real-time quantitative PCR", "result": "induced"}, {"measurement": "expression of macrophage-specific marker CD68 in aorta", "setting": "[3]; real-time quantitative PCR", "result": "did not affect"}, {"measurement": "expression of MCP-1 in aorta", "setting": "[3]; versus vehicle", "result": "not different"}, {"measurement": "expression of MMP-9 in aorta", "setting": "[3]; versus vehicle", "result": "substantially reduced"}, {"measurement": "expression of iNOS in aorta", "setting": "[3]; versus vehicle", "result": "not different"}]}]}
